# Measured values reported in ChEMBL document CHEMBL5576043, “Synthesis, radiosynthesis and biochemical evaluation of fluorinated analogues of sphingosine-1-phosphate receptor 3 specific antagonists using PET” (Bioorg Med Chem, 2024).
# Key:
# [1] = 1-Octanol/PBS partition coefficient, logD of the compound at pH 7.4 incubated for 3 mins; format: physicochemical
# [2] = Retention time of compound by radio-HPLC analysis; format: physicochemical
# [3] = Drug metabolism in formulated solution assessed as 4-[18F]fluoroaniline metabolite formation by measuring retention time after 180 mins by radio-HPLC analysis; format: ADME; conditions: 3 h
# [4] = Drug metabolism in formulated solution assessed as decomposition mediated metabolite formation by measuring retention time after 180 mins by radio-HPLC analysis; format: ADME; conditions: 3 h
# [5] = Drug metabolism in mouse serum assessed as decomposition mediated metabolite formation at 37 degreeC measured after 10 to 90 mins by radio-HPLC analysis; format: ADME, cell-free; conditions: time 10-90 min
# [6] = Stability in mouse serum measured after 90 mins by radio-HPLC analysis; format: ADME, cell-free; conditions: 1.5 h
# [7] = Drug metabolism in human serum assessed as decomposition mediated metabolite formation measured after 90 mins by radio-HPLC analysis; format: ADME, cell-free; conditions: 1.5 h
# [8] = Drug accumulation in C57/BL6 mouse liver at 5 MBq, iv administered as bolus injection and measured upto 15 mins by imaging analysis; format: ADME, organism-based; conditions: in vivo, 0.25 h
# [9] = Drug uptake in C57/BL6 mouse intestine at 5 MBq, iv administered as bolus injection and measured at 15 to 90 mins by imaging analysis; format: ADME, organism-based; conditions: in vivo, time 15-90 min
# [10] = Drug uptake in C57/BL6 mouse kidney at 5 MBq, iv administered as bolus injection and measured for 90 mins by imaging analysis; format: ADME, organism-based; conditions: in vivo, 1.5 h
# [11] = Drug uptake in C57/BL6 mouse urinary bladder at 5 MBq, iv administered as bolus injection and measured for 90 mins by imaging analysis; format: ADME, organism-based; conditions: in vivo, 1.5 h
# [12] = Drug accumulation in C57/BL6 mouse heart at 5 MBq, iv administered as bolus injection and measured at 6 to 15 mins by imaging analysis; format: ADME, organism-based; conditions: in vivo, time 6-15 min
# [13] = Drug accumulation in C57/BL6 mouse spleen at 5 MBq, iv administered as bolus injection and measured at 6 to 15 mins by imaging analysis; format: ADME, organism-based; conditions: in vivo, time 6-15 min
# [14] = Drug accumulation in C57/BL6 mouse heart at 5 MBq, iv administered as bolus injection and measured at 15 to 90 mins by imaging analysis; format: ADME, organism-based; conditions: in vivo, time 15-90 min
# [15] = Drug accumulation in C57/BL6 mouse spleen at 5 MBq, iv administered as bolus injection and measured at 15 to 90 mins by imaging analysis; format: ADME, organism-based; conditions: in vivo, time 15-90 min
# [16] = Drug accumulation in C57/BL6 mouse lungs at 5 MBq, iv administered as bolus injection and measured at 0 to 5 mins by imaging analysis; format: ADME, organism-based, Lung; conditions: in vivo, time 0-5 min
# [17] = Drug uptake in C57/BL6 mouse blood at 5 MBq, iv administered as bolus injection and measured after 90 mins by PET imaging analysis; format: ADME, organism-based; conditions: in vivo, 1.5 h
# [18] = Drug uptake in C57/BL6 mouse blood at 5 MBq, iv administered as bolus injection and measured at 12 sec by PET imaging analysis; format: ADME, organism-based; conditions: in vivo, 12 s
# [19] = Drug uptake in C57/BL6 mouse liver at 5 MBq, iv administered as bolus injection and measured at ~5 min by PET imaging analysis; format: ADME, organism-based; conditions: in vivo
# [20] = Drug uptake in C57/BL6 mouse liver at 5 MBq, iv administered as bolus injection and measured at 90 min by PET imaging analysis; format: ADME, organism-based; conditions: in vivo, 1.5 h
# [21] = Drug uptake in C57/BL6 mouse kidney at 5 MBq, iv administered as bolus injection and measured at 1.2 min by PET imaging analysis; format: ADME, organism-based; conditions: in vivo, 0.02 h
# [22] = Drug uptake in C57/BL6 mouse kidney at 5 MBq, iv administered as bolus injection and measured at 90 min by PET imaging analysis; format: ADME, organism-based; conditions: in vivo, 1.5 h
# [23] = Drug uptake in C57/BL6 mouse blood at 5 MBq, iv administered as bolus injection and measured within 24 sec by PET imaging analysis; format: ADME, organism-based; conditions: in vivo, 24 s
# [24] = Drug uptake in C57/BL6 mouse lung at 5 MBq, iv administered as bolus injection and measured at 12 sec by PET imaging analysis; format: ADME, organism-based; conditions: in vivo, 12 s
# [25] = Drug uptake in C57/BL6 mouse lung at 5 MBq, iv administered as bolus injection and measured within 4.5 min by PET imaging analysis; format: ADME, organism-based; conditions: in vivo, 0.075 h
# [26] = Drug uptake in C57/BL6 mouse spleen at 5 MBq, iv administered as bolus injection and measured within 4.5 min by PET imaging analysis; format: ADME, organism-based; conditions: in vivo, 0.075 h
# [27] = Drug uptake in C57/BL6 mouse spleen at 5 MBq, iv administered as bolus injection and measured after 90 min by PET imaging analysis; format: ADME, organism-based; conditions: in vivo, 1.5 h
# [28] = Drug uptake in C57/BL6 mouse heart at 5 MBq, iv administered as bolus injection and measured at 24 sec by PET imaging analysis; format: ADME, organism-based; conditions: in vivo, 24 s
# [29] = Drug uptake in C57/BL6 mouse heart at 5 MBq, iv administered as bolus injection and measured at 4.2 min by PET imaging analysis; format: ADME, organism-based; conditions: in vivo, 0.07 h
# [30] = Drug uptake in C57/BL6 mouse heart at 5 MBq, iv administered as bolus injection and measured at 14.2 min by PET imaging analysis; format: ADME, organism-based; conditions: in vivo, 0.2367 h
# [31] = Drug uptake in C57/BL6 mouse heart at 5 MBq, iv administered as bolus injection and measured at 90 min by PET imaging analysis; format: ADME, organism-based; conditions: in vivo, 1.5 h
# [32] = Drug uptake in C57/BL6 mouse lymph node at 5 MBq, iv administered as bolus injection and measured at 60 min by PET imaging analysis; format: ADME, organism-based; conditions: in vivo, 1 h
# [33] = Drug uptake in C57/BL6 mouse muscle tissue at 5 MBq, iv administered as bolus injection and measured at 60 min by PET imaging analysis; format: ADME, organism-based; conditions: in vivo, 1 h
# [34] = Drug uptake in C57/BL6 mouse brain at 5 MBq, iv administered as bolus injection and measured at 90 min by PET imaging analysis; format: ADME, organism-based; conditions: in vivo, 1.5 h
compound,measurement,setting,value
CC(C)(C)C(=O)/C(=N\Nc1ccc(Cl)cc1)Nc1ccc([18F])cc1,logD at 0.05 h,[1],1.55
same,Retention_time,[2],15.9 min
same,Retention_time,[3],4.5 min
same,Retention_time,[4],16.9 min
same,Drug metabolism,[5],Metabolite_Detected
same,Stability,[6],Stable
same,Drug metabolism,[7],~ 7%
same,Drug uptake,[8],Active
same,Drug uptake,[9],Active
same,Drug uptake,[10],Not Active
same,Drug uptake,[11],Not Active
same,Drug uptake,[12],Active
same,Drug uptake,[13],Active
same,Drug uptake,[14],Not Active
same,Drug uptake,[15],Not Active
same,Drug uptake,[16],Active
same,Drug uptake,[17],Not Active
same,Drug uptake,[18],37.5 %ID/cm3
same,Drug uptake,[19],41 %ID/cm3
same,Drug uptake,[20],10 %ID/cm3
same,Drug uptake,[21],8 %ID/cm3
same,Drug uptake,[22],4 %ID/cm3
same,Drug uptake,[23],Not Active
same,Drug uptake,[24],13 %ID/cm3
same,Drug uptake,[25],Not Active
same,Drug uptake,[26],11 %ID/cm3
same,Drug uptake,[27],3 %ID/cm3
same,Drug uptake,[28],7 %ID/cm3
same,Drug uptake,[29],5 %ID/cm3
same,Drug uptake,[30],6 %ID/cm3
same,Drug uptake,[31],3 %ID/cm3
same,Drug uptake,[32],2.1 %ID/cm3
same,Drug uptake,[33],1.9 %ID/cm3
same,Drug uptake,[34],3.9 %ID/cm3
